From PubChem BioAssay (NCI)
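1) Cells in 96-well plates. 2) Compound, 48 h, 5 concentrations. 3) Linear interpolation between surrounding doses. 4) Unreached endpoint = highest concentration. The concentration for 50% growth inhibition is given as GI50. TGI denotes the concentration required for complete inhibition of growth.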 Where a SMILES comes first, the peptide text is derived from it. The star is where a group is joined. Cbz = O=C(OCc1ccccc1)*; CH2Cl = ClC*

Test system: RPMI-8226 leukemia
Assay: DTP human tumour cell line panel, 48 h

SMILES	GI50 [µM]	TGI [µM]
COc1cc(-c2cc(-c3cc4c([nH]c5ccccc54)c(-c4cc(OC)c(OC)c(OC)c4)n3)cc(-c3ccccc3)n2)cc(OC)c1OC	2.88	18.5
CC(C)Oc1ccc2cc(-c3nn(CC4CCNCC4)c4ncnc(N)c34)ccc2c1	3.1	12.9
CS(=O)(=O)CCNCc1nc(-c2ccc3ncnc(Nc4ccc(OCc5cccc(C(F)(F)F)c5)cc4)c3c2)cs1	> 25	> 25
CC(C)CC(NC(=O)OCc1ccccc1)C(=O)NC(Cc1ccccc1)C(=O)CCl (stereo not drawn) (Cbz-Leu-Phe-CH2Cl; configuration not given here)	–	5.15
CCOC(=O)C(Cc1ccc(CCCC(=O)NCCC(=O)Nc2ccc3nc(C)sc3c2)cc1)C(=O)OCC	21.1	53.4
NCCNc1c2c(c(NCCN)c3[nH]ccc13)C(=O)c1ccccc1C2=O	0.278	1.21
CCOC(=O)Nc1ccc(-c2nc(-c3cccc(OCCN4CCOCC4)c3)c(-c3ccnc(Br)c3)[nH]2)cc1	1.07	3.78
COc1cc(Cn2c(-c3ccccc3)c(Cl)c3c2-c2oncc2CC3)cc(OC)c1	7.11	> 100
O=C(CC1(O)C(=O)N(Cc2ccccc2)c2ccc(F)cc21)c1ccc(C(=O)NCC2CCC3(CC2)OOC2(CCCCC2)OO3)cc1 (centres undefined)	0.365	1.92
COc1cc2c3c(n(C)c(=O)c2cc1OC)-c1cc2c(cc1/C3=C\CN)OCO2	0.307	4.9
CC[C@H]1[C@@H]2C=C[C@@H]3[C@H]4C/C=C\C(=O)NCCC[C@@H]5NC(=O)/C(=C(O)/C=C/[C@@H]4C[C@@H]3[C@H]2C[C@H]1C)C5=O	1.77	4.23

Test system: DU-145 prostate
Assay: DTP human tumour cell line panel, 48 h

SMILES	TGI [µM]	GI50 [µM]
O=C(O)Cc1cc(Cl)ccc1O	> 100	–
O=C(c1ccccc1)c1cc2ccccc2o1	> 100	73.6
O=C(Nc1ccncc1)C(=O)c1cn(S(=O)(=O)c2ccc(F)cc2)c2ccccc12	20.4	3.37
COc1ccc(C(=O)/C=C/c2cc(-c3cc(OC)c(OC)c(OC)c3)n[nH]2)cc1OC	1.84	0.55
C=C(C)[C@@H]1CC[C@]2(C)[C@H](CC=C3[C@@H]4CC(C)(C)CC[C@]4(C(N)=O)CC[C@]32C)[C@@]1(C)CCC#N	> 100	4.8
COc1c(OC[C@H](O)CN2CCOCC2)ccc2c3n(c(=NC(=O)c4cccnc4C)nc12)CCN3	> 50	6.72
COc1ccc(-c2nc3ccc(-c4nc5ccc(N6CCN(c7ccccc7)CC6)cc5[nH]4)cc3[nH]2)cc1OC	3.46	1.83
O=C(N[C@@H](c1ccc(Cl)c(Cl)c1)C1CNC1)c1ccc2cnccc2c1	13.2	0.644
CO/N=C(\COc1ccc2c(c1)oc(=O)c1cc(OC)ccc12)c1ccc(OC)cc1	> 100	> 100
O=C1OCC2=C1C(c1cccc(Br)c1)c1cc3c(cc1N2CCO)CCC3 (centres undefined)	0.466	0.137
Nc1nc(/C=C\c2ccc([N+](=O)[O-])s2)nc(N2CCCC2)n1	16.4	2.47
Clc1ccc2[nH]cc(-c3nnnn3-c3ccccc3)c2c1	> 76.6	24.5
CC(=O)OC12C=CC(=O)N1c1ccccc1C(=O)O2 (centres undefined)	> 100	> 100
Oc1cccnc1[Se]	> 100	–
COc1cc(-c2cc(-c3cc4c([nH]c5ccccc54)c(-c4cc(OC)c(OC)c(OC)c4)n3)cc(-c3ccccc3)n2)cc(OC)c1OC	> 100	11
CC(C)Oc1ccc2cc(-c3nn(CC4CCNCC4)c4ncnc(N)c34)ccc2c1	28.4	14.9
CS(=O)(=O)CCNCc1nc(-c2ccc3ncnc(Nc4ccc(OCc5cccc(C(F)(F)F)c5)cc4)c3c2)cs1	> 25	> 17.7
CC(C)CC(NC(=O)OCc1ccccc1)C(=O)NC(Cc1ccccc1)C(=O)CCl (stereo not drawn) (Cbz-Leu-Phe-CH2Cl; configuration not given here)	> 100	–
CCOC(=O)C(Cc1ccc(CCCC(=O)NCCC(=O)Nc2ccc3nc(C)sc3c2)cc1)C(=O)OCC	> 100	51.1
NCCNc1c2c(c(NCCN)c3[nH]ccc13)C(=O)c1ccccc1C2=O	2.4	0.694
CCOC(=O)Nc1ccc(-c2nc(-c3cccc(OCCN4CCOCC4)c3)c(-c3ccnc(Br)c3)[nH]2)cc1	> 100	4.05
COc1cc(Cn2c(-c3ccccc3)c(Cl)c3c2-c2oncc2CC3)cc(OC)c1	> 100	26.6
O=C(CC1(O)C(=O)N(Cc2ccccc2)c2ccc(F)cc21)c1ccc(C(=O)NCC2CCC3(CC2)OOC2(CCCCC2)OO3)cc1 (centres undefined)	0.335	0.187
COc1cc2c3c(n(C)c(=O)c2cc1OC)-c1cc2c(cc1/C3=C\CN)OCO2	37.1	0.346
CC[C@H]1[C@@H]2C=C[C@@H]3[C@H]4C/C=C\C(=O)NCCC[C@@H]5NC(=O)/C(=C(O)/C=C/[C@@H]4C[C@@H]3[C@H]2C[C@H]1C)C5=O	1.94	0.715

Test system: SK-MEL-2 melanoma
Assay: DTP human tumour cell line panel, 48 h

SMILES	TGI [µM]	GI50 [µM]
O=C(O)Cc1cc(Cl)ccc1O	> 100	–
O=C(c1ccccc1)c1cc2ccccc2o1	> 100	> 100
O=C(Nc1ccncc1)C(=O)c1cn(S(=O)(=O)c2ccc(F)cc2)c2ccccc12	52.9	4.74
COc1ccc(C(=O)/C=C/c2cc(-c3cc(OC)c(OC)c(OC)c3)n[nH]2)cc1OC	3.51	1.85
C=C(C)[C@@H]1CC[C@]2(C)[C@H](CC=C3[C@@H]4CC(C)(C)CC[C@]4(C(N)=O)CC[C@]32C)[C@@]1(C)CCC#N	> 100	5.28
COc1c(OC[C@H](O)CN2CCOCC2)ccc2c3n(c(=NC(=O)c4cccnc4C)nc12)CCN3	> 50	> 50
COc1ccc(-c2nc3ccc(-c4nc5ccc(N6CCN(c7ccccc7)CC6)cc5[nH]4)cc3[nH]2)cc1OC	4.07	2.04
O=C(N[C@@H](c1ccc(Cl)c(Cl)c1)C1CNC1)c1ccc2cnccc2c1	3.06	0.52
CO/N=C(\COc1ccc2c(c1)oc(=O)c1cc(OC)ccc12)c1ccc(OC)cc1	> 100	> 100
O=C1OCC2=C1C(c1cccc(Br)c1)c1cc3c(cc1N2CCO)CCC3 (centres undefined)	8.32	0.231
Nc1nc(/C=C\c2ccc([N+](=O)[O-])s2)nc(N2CCCC2)n1	27.9	12.9
Clc1ccc2[nH]cc(-c3nnnn3-c3ccccc3)c2c1	> 100	> 64.9
CC(=O)OC12C=CC(=O)N1c1ccccc1C(=O)O2 (centres undefined)	> 100	–
Oc1cccnc1[Se]	> 100	–
COc1cc(-c2cc(-c3cc4c([nH]c5ccccc54)c(-c4cc(OC)c(OC)c(OC)c4)n3)cc(-c3ccccc3)n2)cc(OC)c1OC	6.36	2.58
CC(C)Oc1ccc2cc(-c3nn(CC4CCNCC4)c4ncnc(N)c34)ccc2c1	24.4	10.8
CS(=O)(=O)CCNCc1nc(-c2ccc3ncnc(Nc4ccc(OCc5cccc(C(F)(F)F)c5)cc4)c3c2)cs1	> 22.1	8.7
CC(C)CC(NC(=O)OCc1ccccc1)C(=O)NC(Cc1ccccc1)C(=O)CCl (stereo not drawn) (Cbz-Leu-Phe-CH2Cl; configuration not given here)	7.37	–
CCOC(=O)C(Cc1ccc(CCCC(=O)NCCC(=O)Nc2ccc3nc(C)sc3c2)cc1)C(=O)OCC	> 62	33
NCCNc1c2c(c(NCCN)c3[nH]ccc13)C(=O)c1ccccc1C2=O	2.41	0.785
CCOC(=O)Nc1ccc(-c2nc(-c3cccc(OCCN4CCOCC4)c3)c(-c3ccnc(Br)c3)[nH]2)cc1	6.07	2.41
COc1cc(Cn2c(-c3ccccc3)c(Cl)c3c2-c2oncc2CC3)cc(OC)c1	> 100	10.6
O=C(CC1(O)C(=O)N(Cc2ccccc2)c2ccc(F)cc21)c1ccc(C(=O)NCC2CCC3(CC2)OOC2(CCCCC2)OO3)cc1 (centres undefined)	4.13	2
COc1cc2c3c(n(C)c(=O)c2cc1OC)-c1cc2c(cc1/C3=C\CN)OCO2	> 100	24.1
CC[C@H]1[C@@H]2C=C[C@@H]3[C@H]4C/C=C\C(=O)NCCC[C@@H]5NC(=O)/C(=C(O)/C=C/[C@@H]4C[C@@H]3[C@H]2C[C@H]1C)C5=O	6.01	2.54
